# Values of other authors in EP2742940A1, “Salts of aza-bicyclo-di-aryl ethers for adminstration once daily, twice daily or thrice daily” (IP Gesellschaft für Management mbH, priority 2012, dated 2014).
# Where “and” joins values, the source holds several entries; their conditions need not be identical. Equal values may be shown once. Read-outs that look alike come from different tables or passages of the source.
# Assays:
# [1] = set-up: Initial water content / Hygroscopy @ 85%RH: unit not given here; details: for Initial water content: Example 7 comparison of salt forms; for moisture gain: at 85% RH
# [2] = dogs (N=3), 1.4 µmol/kg p.o.
# BRAF-MEK-ERK cascade = BRAF-MEK-ERK cascade assay, mean ± SEM, n=3
# A375 cells = details: XTT, three days after compound addition
# P-Erk = details: A375 cells, P-Erk In-Cell-Western, 3 hrs treatment
# [3] = rat; for %F: p.o. (3 mg/kg); for PK-parameters compared to Example 1: one-way analysis of variance
# DUSP6 = details: A375 tumor bearing athymic-nude rats, single oral dose, at 12h and 24h (p=0.003 and p=0.006), two-way analysis of variance
# [4] = at 65°C
# [5] = male Wistar rats, oral 10 mg/kg, Mean All (n=8)
# [6] = male Wistar rats, oral 10 mg/kg, Median [range]
# [7] = male Wistar rats, oral 10 mg/kg, individual rats 01-08, listed as mono-fumarate, 10 mg/kg
smiles,measurement,setting,value
"Cc1ccc(-c2ccc(O[C@H]3CN4CCC3CC4)cn2)cc1.O=C(O)/C=C/C(=O)O [Compound B, fumarate salt of (R)-3-(6-(4-methylphenyl)-pyridin-3-yloxy)-1-aza-bicyclo[2.2.2]octane]",Hygroscopy @ 85%RH,[1],0.5
same,Initial water content,[1],<0.5
same,moisture gain,[1],0.5%
same,Plasma (pmoles/ml±SD),[2]; 0.5 hour,49.4 ± 21.9 pmol/mL
same,Plasma (pmoles/ml±SD),[2]; 1 hour,67.6 ± 22.6 pmol/mL
same,Plasma (pmoles/ml±SD),[2]; 2 hour,75.2 ± 36.8 pmol/mL
same,Plasma (pmoles/ml±SD),[2]; 4 hour,27.5 ± 13.3 pmol/mL
same,Plasma (pmoles/ml±SD),[2]; 8 hour,8.1 ± 3.0 pmol/mL
same,Plasma (pmoles/ml±SD),[2]; 24 hour,0.8 ± 0.7 pmol/mL
same,Plasma (pmoles/ml±SD),"[2]; fumarate salt form, 0.25 hour",14.7 ± 1.1 pmol/mL
same,T1/2,"male Wistar rats, oral 10 mg/kg, Mean All",3.76 h
same,AUClast,[5],249 ng·h/mL
same,AUClast/Dose (h·ng/mL)/(mg/kg),[5],25.4 (h·ng/mL)/(mg/kg)
same,Cmax,[5],161 ng/mL
same,Cmax/Dose (ng/mL)/(mg/kg),[5],16.5 (ng/mL)/(mg/kg)
same,"Concentration in plasma, Time (h) 0.25",[5],149 ng/mL
same,"Concentration in plasma, Time (h) 0.5",[5],132 ng/mL
same,"Concentration in plasma, Time (h) 1",[5],77.4 ng/mL
same,"Concentration in plasma, Time (h) 2",[5],38.9 ng/mL
same,"Concentration in plasma, Time (h) 3",[5],19.5 ng/mL
same,"Concentration in plasma, Time (h) 4",[5],10.6 ng/mL
same,"Concentration in plasma, Time (h) 6",[5],5.10 ng/mL
same,"Concentration in plasma, Time (h) 8",[5],2.54 ng/mL
same,"Concentration in plasma, Time (h) 24",[5],0320 ng/mL
same,Tlast,[6],24.0 h
same,Tmax,[6],0.25 h
same,AUClast,[7],202 ng·h/mL and 259 ng·h/mL and 212 ng·h/mL and 188 ng·h/mL and 269 ng·h/mL and 292 ng·h/mL and 298 ng·h/mL and 272 ng·h/mL
same,AUClast/Dose (h·ng/mL)/(mg/kg),[7],20.8 (h·ng/mL)/(mg/kg) and 26.3 (h·ng/mL)/(mg/kg) and 21.4 (h·ng/mL)/(mg/kg) and 192 (h·ng/mL)/(mg/kg) and 28.0 (h·ng/mL)/(mg/kg) and 30.1 (h·ng/mL)/(mg/kg) and 29.6 (h·ng/mL)/(mg/kg) and 27.9 (h·ng/mL)/(mg/kg)
same,Cmax,[7],167 ng/mL and 162 ng/mL and 78.4 ng/mL and 99.7 ng/mL and 242 ng/mL and 204 ng/mL and 184 ng/mL and 153 ng/mL
same,Cmax/Dose (ng/mL)/(mg/kg),[7],17.2 (ng/mL)/(mg/kg) and 16.4 (ng/mL)/(mg/kg) and 7.88 (ng/mL)/(mg/kg) and 102 (ng/mL)/(mg/kg) and 25.2 (ng/mL)/(mg/kg) and 21.1 (ng/mL)/(mg/kg) and 18.3 (ng/mL)/(mg/kg) and 15.7 (ng/mL)/(mg/kg)
same,"Concentration in plasma, Time (h) 0.25",[7],167 ng/mL and 162 ng/mL and 77.8 ng/mL and 890 ng/mL and 242 ng/mL and 204 ng/mL and 93.3 ng/mL and 153 ng/mL
same,"Concentration in plasma, Time (h) 0.5",[7],104 ng/mL and 130 ng/mL and 784 ng/mL and 99.7 ng/mL and 143 ng/mL and 179 ng/mL and 184 ng/mL and 138 ng/mL
same,"Concentration in plasma, Time (h) 1",[7],67.1 ng/mL and 88.8 ng/mL and 41.3 ng/mL and 62.8 ng/mL and 83.2 ng/mL and 80.8 ng/mL and 101 ng/mL and 94.2 ng/mL
same,"Concentration in plasma, Time (h) 2",[7],27.4 ng/mL and 39.2 ng/mL and 378 ng/mL and 24.6 ng/mL and 47.1 ng/mL and 37.6 ng/mL and 54.8 ng/mL and 42.6 ng/mL
same,"Concentration in plasma, Time (h) 3",[7],12.4 ng/mL and 17.7 ng/mL and 25.3 ng/mL and 11.7 ng/mL and 19.6 ng/mL and 20.6 ng/mL and 25.1 ng/mL and 23.2 ng/mL
same,"Concentration in plasma, Time (h) 4",[7],906 ng/mL and 10.6 ng/mL and 13.3 ng/mL and 5.90 ng/mL and 9.71 ng/mL and 11.8 ng/mL and 13.0 ng/mL and 11.1 ng/mL
same,"Concentration in plasma, Time (h) 6",[7],749 ng/mL and 3.47 ng/mL and 7.63 ng/mL and 5.79 ng/mL and 4.29 ng/mL and 4.24 ng/mL and 4.05 ng/mL and 3.87 ng/mL
same,"Concentration in plasma, Time (h) 8",[7],291 ng/mL and 2.35 ng/mL and 3.62 ng/mL and 2.62 ng/mL and 2.46 ng/mL and 1.94 ng/mL and 238 ng/mL and 207 ng/mL
same,T1/2,[7],2.44 h and 5.02 h and 3.62 h and 3.71 h and 2.02 h and 3.97 h and 5.51 h
same,Tlast,[7],8.0 h (2×) and 24.0 h (6×)
same,Tmax,[7],0.25 h (3×) and 025 h (2×) and 0.50 h (3×)
same,AUClast,"rats, acute oral dosing of 10 mg/kg",249+-42 h ng/ml
same,Cmax of the free form in plasma,"rats, acute oral dosing of 10 mg/kg (relative to free form)",161+-53 ng/ml
"O=S(=O)(Nc1c(Nc2ccc(I)cc2F)c(F)c(F)c2ccoc12)C1(CC(O)CO)CC1 (racemic) [Example 1, N-(4,5-difluoro-6-((2-fluoro-4-iodophenyl)amino)benzofuran-7-yl)-1-(2,3-dihydroxypropyl)cyclopropane-1-sulfonamide]",IC50,BRAF-MEK-ERK cascade,0.0021 ± 0.00058 µM
same,GI50,A375 cells,0.0176 µM
same,EC50,P-Erk,0.0122 µM
same,%F,[3],87%
"Cc1ccc(-c2ccc(O[C@H]3CN4CCC3CC4)cn2)cc1.O=C(O)CC(=O)O [Malonate, malonate salt of (R)-3-(6-(4-methylphenyl)-pyridin-3-yloxy)-1-aza-bicyclo[2.2.2]octane]",Hygroscopy @ 85%RH,[1],1.3
same,Initial water content,[1],∼0
same,moisture gain,[1],1.3%
"Cc1ccc(-c2ccc(O[C@H]3CN4CCC3CC4)cn2)cc1.O=C(O)CCC(=O)O [Succinate, succinate salt of (R)-3-(6-(4-methylphenyl)-pyridin-3-yloxy)-1-aza-bicyclo[2.2.2]octane]",Hygroscopy @ 85%RH,[1],0.3
same,Initial water content,[1],∼4.5
same,moisture gain,[1],0.3%
"O=S(=O)(Nc1c(Nc2ccc(I)cc2F)c(F)c(F)c2ccoc12)C1(C[C@H](O)CO)CC1 [Example 1A, (S)-N-(4,5-difluoro-6-((2-fluoro-4-iodophenyl)amino)benzofuran-7-yl)-1-(2,3-dihydroxypropyl)cyclopropane-1-sulfonamide]",IC50,BRAF-MEK-ERK cascade,0.002 ± 0.00025 µM
same,GI50,A375 cells,0.0134 µM
same,EC50,P-Erk,0.0064 µM
same,PK-parameters compared to Example 1,[3],improved PK-parameters
same,%F,[3],132%
same,lowering levels of DUSP-6 in tumor,DUSP6,significantly more effective than Example- IB
"Cc1cn(-c2cc(NC(=O)c3ccc(C)c(Nc4nccc(-c5cccnc5)n4)c3)cc(C(F)(F)F)c2)cn1 [nilotinib, 4-methyl-3-[[4-(3-pyridinyl)-2-pyrimidinyl]amino]-N-[5-(4-methyl-1 H-imidazol-1-yl)-3-(trifluoromethyl)phenyl] benzamide]",solubility in lactic acid,[4],> 600 mg/mL
"Cc1ccc(-c2ccc(O[C@H]3CN4CCC3CC4)cn2)cc1.Cl [Hydrochloride, Form A, chloride salt (hydrochloride) of (R)-3-(6-(4-methylphenyl)-pyridin-3-yloxy)-1-aza-bicyclo[2.2.2]octane]",Hygroscopy @ 85%RH,[1],∼5
same,Initial water content,[1],∼5
same,moisture gain,[1],about 5%
"Cc1ccc(-c2ccc(O[C@H]3CN4CCC3CC4)cn2)cc1.O=P(O)(O)O [Phosphate, Form A, phosphate salt of (R)-3-(6-(4-methylphenyl)-pyridin-3-yloxy)-1-aza-bicyclo[2.2.2]octane]",Hygroscopy @ 85%RH,[1],0.2
same,Initial water content,[1],∼0.5
same,moisture gain,[1],0.2%
"Cc1ccc(-c2ccc(O[C@H]3CN4CCC3CC4)cn2)cc1.O=C(O)/C=C\C(=O)O [Maleate, maleate salt of (R)-3-(6-(4-methylphenyl)-pyridin-3-yloxy)-1-aza-bicyclo[2.2.2]octane]",Hygroscopy @ 85%RH,[1],0.3
same,Initial water content,[1],<0.1
same,moisture gain,[1],0.3%
"O=S(=O)(Nc1c(Nc2ccc(I)cc2F)c(F)c(F)c2ccoc12)C1(C[C@@H](O)CO)CC1 [Example 1B, (R)-N-(4,5-difluoro-6-((2-fluoro-4-iodophenyl)amino)benzofuran-7-yl)-1-(2,3-dihydroxypropyl)cyclopropane-1-sulfonamide]",GI50,A375 cells,0.0296 µM
same,EC50,P-Erk,0.0156 µM
same,PK-parameters compared to Example 1,[3],improved PK-parameters
same,%F,[3],126%
